Experimental data: patent publication US20260199564A1, “METHOD OF PREVENTING BLOOD COAGULATION AND DRUG-ELUTING IMPLANT FOR PERCUTANEOUS CORONARY INTERVENTION” (priority 2023, published 2026)

Assays:
[1] = Releasing kinetics of ginsenoside CK from two-layer coated balloon (CK DEB), FIG. 4; type: physicochemical
[2] = Releasing kinetics of ginsenoside CK from three-layer coated stent (CK DES), FIG. 2; type: physicochemical
[3] = system: HUVECs; assay: HUVEC cell viability by CCK-8 assay; type: cell-based, human; details: 1 μM, 3 μM, and 10 μM alone for 24 h
[4] = biological target: T1, CYP1A2 (Homo sapiens, UniProt P05177); assay: Cytochrome P450 inhibition in human liver microsomes using LC-MS/MS, CYP1A2; type: in vitro ADME
T1 construct: with pooled human liver microsomes; from tissue; host or cells: pooled human liver microsomes
T1 sequence (P05177 1-516): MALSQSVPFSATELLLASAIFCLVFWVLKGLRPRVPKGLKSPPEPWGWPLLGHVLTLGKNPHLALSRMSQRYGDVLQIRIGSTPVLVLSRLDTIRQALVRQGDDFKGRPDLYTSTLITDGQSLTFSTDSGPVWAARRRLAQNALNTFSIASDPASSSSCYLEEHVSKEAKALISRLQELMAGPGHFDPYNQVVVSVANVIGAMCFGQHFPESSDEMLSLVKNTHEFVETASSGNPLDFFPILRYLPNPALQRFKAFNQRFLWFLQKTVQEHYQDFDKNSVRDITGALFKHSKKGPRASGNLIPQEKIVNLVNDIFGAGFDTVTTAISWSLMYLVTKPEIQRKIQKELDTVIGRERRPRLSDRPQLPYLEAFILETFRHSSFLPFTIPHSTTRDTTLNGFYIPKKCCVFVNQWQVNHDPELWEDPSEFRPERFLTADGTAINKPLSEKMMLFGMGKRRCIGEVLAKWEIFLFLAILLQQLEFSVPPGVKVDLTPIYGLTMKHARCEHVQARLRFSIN
Protocol: (§1) In IC50 shift experiments, CK (0.2 μL prepared in DMSO) was pre-incubated for 30 min at 37° C., at 8 different concentrations, with pooled human liver microsomes (0.1-1 mg/mL, depending on which enzyme was assessed) in the absence or presence of 1 mM NADPH in 100 μL of potassium phosphate buffer (100 mM, pH 7.4) and MgCl2 (2.5 mM). After the pre-incubation, a substrate mixture containing a probe substrate in 100 μL of potassium phosphate buffer (100 mM, pH 7.4), MgCl2 (2.5 mM), and NADPH (1 mM) was added for measurement of the corresponding P450 activities. Incubations were terminated by addition of 200 μL methanol. Samples were then extracted and centrifuged and the supernatant was subjected to validated LC-MS/MS analysis.

[5] = biological target: T2, CYP2C8 (Homo sapiens, UniProt P10632); assay: Cytochrome P450 inhibition in human liver microsomes using LC-MS/MS, CYP2C8; type: in vitro ADME
T2 construct: with pooled human liver microsomes; from tissue; host or cells: pooled human liver microsomes
T2 sequence (P10632 1-490): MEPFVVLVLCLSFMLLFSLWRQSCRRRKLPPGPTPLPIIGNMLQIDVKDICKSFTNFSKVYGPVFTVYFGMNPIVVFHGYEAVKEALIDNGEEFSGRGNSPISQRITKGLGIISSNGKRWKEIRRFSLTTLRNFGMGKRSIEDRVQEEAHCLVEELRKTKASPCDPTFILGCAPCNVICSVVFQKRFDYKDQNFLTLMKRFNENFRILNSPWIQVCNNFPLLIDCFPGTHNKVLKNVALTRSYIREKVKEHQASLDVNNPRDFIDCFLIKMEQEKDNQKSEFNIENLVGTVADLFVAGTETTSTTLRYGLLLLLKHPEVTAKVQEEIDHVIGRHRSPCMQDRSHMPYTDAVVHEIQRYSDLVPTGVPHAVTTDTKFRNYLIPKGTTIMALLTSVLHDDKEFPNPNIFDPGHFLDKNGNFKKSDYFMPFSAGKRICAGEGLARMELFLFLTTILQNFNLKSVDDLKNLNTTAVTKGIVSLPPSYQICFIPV
Protocol: as §1

[6] = system: ICAM-1; assay: LPS-induced ICAM-1 mRNA expression in HUVECs; type: cell-based, human; details: 1, 3, 10 μM for 1 h prior to LPS (1 μg/ml) stimulation for 24 h
Protocol: (§2) HUVECs were treated for 1 h with ginsenoside CK (1 μM, 3 μM, and 10 μM) prior to LPS (1 μg/ml) stimulation for 24 h. (A) ICAM-1 (B) VCAM-1 mRNA expression. Values are means±SEM of 3 independent experiments. Statistical significance assessed by one-way ANOVA followed by Scheffe post-hoc test for multiple comparisons (***P<0.01, *P<0.05 vs LPS).
(§3) Treatment of HUVECs with LPS (1 μg/ml) increased ICAM-1 and VCAM-1 mRNA expression. Twenty-four hours after LPS treatment, maximal expression of ICAM-1 and VCAM-1 was attained. To determine whether LPS-stimulated ICAM-1 and VCAM-1 mRNA expression is affected by ginsenoside CK, HUVECs were treated for 1 h with ginsenoside CK (1 μM, 3 μM, and 10 μM) prior to LPS (1 μg/ml) stimulation for 24 h.

[7] = system: VCAM-1; assay: LPS-induced VCAM-1 mRNA expression in HUVECs; type: cell-based, human; details: 1, 3, 10 μM for 1 h prior to LPS (1 μg/ml) stimulation for 24 h
Protocol: as §2, §3

[8] = biological target: T3, CYP2C9 (Homo sapiens, UniProt P11712); assay: Cytochrome P450 inhibition in human liver microsomes using LC-MS/MS, CYP2C9; type: in vitro ADME
T3 construct: with pooled human liver microsomes; from tissue; host or cells: pooled human liver microsomes
T3 sequence (P11712 whole entry): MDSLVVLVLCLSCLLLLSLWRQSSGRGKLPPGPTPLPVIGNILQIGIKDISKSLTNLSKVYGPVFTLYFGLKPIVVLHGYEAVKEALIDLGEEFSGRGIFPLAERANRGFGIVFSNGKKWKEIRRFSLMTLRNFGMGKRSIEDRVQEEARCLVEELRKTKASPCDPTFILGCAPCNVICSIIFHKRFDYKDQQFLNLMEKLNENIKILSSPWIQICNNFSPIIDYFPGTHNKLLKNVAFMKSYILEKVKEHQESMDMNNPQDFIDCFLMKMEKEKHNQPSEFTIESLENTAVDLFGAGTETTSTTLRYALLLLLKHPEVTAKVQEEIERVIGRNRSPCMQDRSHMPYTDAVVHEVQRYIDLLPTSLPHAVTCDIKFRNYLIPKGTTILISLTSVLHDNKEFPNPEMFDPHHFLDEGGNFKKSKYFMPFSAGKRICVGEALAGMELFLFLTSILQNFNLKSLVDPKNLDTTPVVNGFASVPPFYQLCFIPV
Protocol: as §1

[9] = system: TNF-α; assay: LPS-induced TNF-α expression in HUVECs; type: cell-based, human; details: 1, 3, 10 μM for 1 h prior to LPS (1 μg/ml) stimulation for 24 h
Protocol: as §2, with “h” for “h.”, “IL-6” for “ICAM-1”, “TNF-αexpression.” for “VCAM-1 mRNA expression.”
Treatment of HUVECs with LPS (1 μg/ml) increased IL-6 and TNF-αexpression. To determine whether LPS-induced IL-6 and TNF-αexpression was affected by ginsenoside CK, HUVECs were treated for 1 h with ginsenoside CK (1 μM, 3 μM, and 10 μM) prior to LPS (1 μg/ml) stimulation for 24 h.

[10] = biological target: T4, CYP2C19 (Homo sapiens, UniProt P33261); assay: Cytochrome P450 inhibition in human liver microsomes using LC-MS/MS, CYP2C19; type: in vitro ADME
T4 construct: with pooled human liver microsomes; from tissue; host or cells: pooled human liver microsomes
T4 sequence (P33261 whole entry): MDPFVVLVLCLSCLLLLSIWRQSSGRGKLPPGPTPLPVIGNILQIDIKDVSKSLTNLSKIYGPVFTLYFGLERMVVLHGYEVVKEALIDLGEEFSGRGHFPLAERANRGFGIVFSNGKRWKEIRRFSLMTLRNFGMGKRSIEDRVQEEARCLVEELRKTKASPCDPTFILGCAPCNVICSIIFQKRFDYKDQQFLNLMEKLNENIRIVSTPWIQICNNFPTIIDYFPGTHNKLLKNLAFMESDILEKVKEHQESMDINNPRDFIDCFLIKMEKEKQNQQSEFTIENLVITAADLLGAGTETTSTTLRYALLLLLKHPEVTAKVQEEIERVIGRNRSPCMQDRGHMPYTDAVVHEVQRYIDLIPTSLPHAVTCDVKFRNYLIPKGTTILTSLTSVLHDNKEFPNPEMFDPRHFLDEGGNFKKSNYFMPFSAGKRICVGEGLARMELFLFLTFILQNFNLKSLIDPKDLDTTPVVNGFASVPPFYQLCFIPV
Protocol: as §1

[11] = biological target: T5, CYP2D6 (Homo sapiens, UniProt P10635); assay: Cytochrome P450 inhibition in human liver microsomes using LC-MS/MS, CYP2D6; type: in vitro ADME
T5 construct: with pooled human liver microsomes; from tissue; host or cells: pooled human liver microsomes
T5 sequence (P10635 whole entry): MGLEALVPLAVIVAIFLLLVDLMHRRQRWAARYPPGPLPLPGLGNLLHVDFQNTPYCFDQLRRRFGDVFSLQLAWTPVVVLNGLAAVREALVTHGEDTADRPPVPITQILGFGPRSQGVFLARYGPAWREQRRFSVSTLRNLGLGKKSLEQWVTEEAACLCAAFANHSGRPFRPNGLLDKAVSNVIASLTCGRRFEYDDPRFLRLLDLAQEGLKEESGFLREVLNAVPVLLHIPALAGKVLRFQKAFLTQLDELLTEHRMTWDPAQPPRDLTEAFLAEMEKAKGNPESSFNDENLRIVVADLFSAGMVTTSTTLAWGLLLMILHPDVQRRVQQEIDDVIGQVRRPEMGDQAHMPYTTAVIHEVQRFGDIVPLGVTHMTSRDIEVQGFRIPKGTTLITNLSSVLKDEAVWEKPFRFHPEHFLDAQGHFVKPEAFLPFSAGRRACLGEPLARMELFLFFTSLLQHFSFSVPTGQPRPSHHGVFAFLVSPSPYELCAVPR
Protocol: as §1

[12] = 50 μM, 30 min pre-incubation in the presence or absence of NADPH

## CC(C)=CCC[C@](C)(O[C@@H]1O[C@H](CO)[C@@H](O)[C@H](O)[C@H]1O)[C@H]1CC[C@]2(C)[C@@H]1[C@H](O)C[C@@H]1[C@@]3(C)CC[C@H](O)C(C)(C)[C@@H]3CC[C@]12C [CK, Ginsenoside compound K]
[1]; after 90 days of drug release
  amount of residual drug: beyond the detection/quantitation limit
[1]; within one month
  drug released (initial burst): ~80%
[2]; after 90 days of drug release
  amount of residual drug in the stent: beyond the detection/quantitation limit
[2]; within one month
  drug released (initial burst): ~80%
[3]
  cell viability: did not influence cell viability
[4]; [12]
  inhibition at concentration of 50 μM: did not inhibit
[4]; pooled human liver microsomes, substrate Phenacetin
  IC50: > 50 µM
[5]; [12]
  inhibition at concentration of 50 μM: did not inhibit
[5]; pooled human liver microsomes, substrate Amodiaquine
  IC50: > 50 µM
[6]
  LPS-stimulated ICAM-1 mRNA expression: significantly inhibited
[7]
  LPS-stimulated VCAM-1 mRNA expression: significantly inhibited
[8]; [12]
  inhibition at concentration of 50 μM: did not inhibit
[8]; pooled human liver microsomes, substrate Diclofenac
  IC50: > 50 µM
[9]
  LPS-induced TNF-α expression: significantly decreased
[10]; [12]
  inhibition at concentration of 50 μM: did not inhibit
[10]; pooled human liver microsomes, substrate S-Mephenytoin
  IC50: > 50 µM
[11]; [12]
  inhibition at concentration of 50 μM: did not inhibit
[11]; pooled human liver microsomes, substrate Dextromethorphan
  IC50: > 50 µM
